According to US11801255B2, “Lipid disulfide prodrugs and uses related thereto” (priority 2017, dated 2023):
Where two headings read alike, the source gives them in different places.

Tests used:
HIV-1 = assay: microbe, parasite or virus in culture; settings: for TI(CC50/EC50): HIV-1, PBMCs; for HIV-1 potency compared to parent nucleoside TFV: in words
Protocol: (§1) Compounds synthesized were evaluated against HIV-infected PBMCs and antiviral activity was assessed by measuring reverse transcriptase in cell supernatants. Compounds 11a-e, 12a-e, and 13 were assayed against HBV and qPCR was used to quantify viral DNA following incubation in HepG2.2.15 cells after 6 days.

PBMCs = assay: in vitro; type: cell-based, human
HBV = assay: Antiviral activity against HBV in HepG2.2.15 cells, viral DNA by qPCR after 6 days; settings: for HBV TI (CC50/EC50): HepG2; for EC50: read-out: HBV EC50 (HepG2)
Protocol: as §1

HepG2 = assay: Cytotoxicity: viability of uninfected HepG2 cells; type: cell-based; settings: read-out: HBV CC50 (HepG2)
[1] = Stability in human plasma/serum by LC-MS; type: in vitro ADME; settings: human plasma
Protocol: Aliquots of each sample were analyzed by LC-MS at varying times points over the course of 2 hours with a final time point at 24 to assess decomposition.

[2] = read-out: EC50 (PBMCs), Table 4, HIV-1
[3] = Table 4, read-out: CC50 (PBMCs)
[4] = read-out: HIV-1 activity (EC50), PBMCs
[5] = read-out: HIV-1 EC50 (PBMCs), Table 1, inhibit HIV-1 by 50%, average of triplicate
[6] = read-out: HIV-1 EC50 (PBMCs), Table 2
[7] = Table 1, viability of uninfected cells reduced by 50%, read-out: HIV-1 CC50 (PBMCs)
[8] = Table 2, read-out: HIV-1 CC50 (PBMCs)

Compound	TI(CC50/EC50) (HIV-1; Table 4)	CC50 (PBMCs; [3])	EC50 (HIV-1; [4])	HIV-1 TI (CC50/EC50) (HIV-1; Table 2, PBMCs)	EC50 (HIV-1; [6])	CC50 (PBMCs; [8])	HBV TI (CC50/EC50) (HBV; Table 2)	EC50 (HBV; Table 2)	CC50 (HepG2; Table 2)	further results
CCCCCCCCCCCCCCCCSSCCOP(=O)(COC(C)Cn1cnc2c(N)ncnc21)OCC (mixture of isomers) [Compound 14]	104	36.2 µM	–	–	–	–	–	–	–	EC50 (HIV-1; [2]): 0.349 µM
CCCCCCCCCCCCCCCCSSCCOP(=O)(COC(C)Cn1cnc2c(N)ncnc21)Nc1ccccc1 (mixture of isomers) [Compound 20]	7,000	34.2 µM	0.005 µM	–	–	–	–	–	–	–
CCCCCCCCCCCCCCCCSSCCOP(=O)(COC(C)Cn1cnc2c(N)ncnc21)OCCC (mixture of isomers) [Compound 15]	49.0	10.6 µM	–	–	–	–	–	–	–	EC50 (HIV-1; [2]): 0.216 µM
tenofovir disoproxil fumarate [TDF, reference compound]	9,500	43.7 µM	0.0046 µM	9,500	0.0046 µM	43.7 µM	86	0.34 µM	29.2 µM	HIV-1 TI (CC50/EC50) (HIV-1; Table 1, PBMCs): 9,500; HIV-1 TI (CC50/EC50) (HIV-1; Table 3, PBMCs): 9,500; EC50 (HIV-1; [2]): 0.0046 µM; EC50 (HIV-1; [5]): 0.0046 µM; EC50 (HIV-1; read-out: HIV-1 EC50 (PBMCs), Table 3): 0.0045 µM; CC50 (PBMCs; [7]): 43.7 µM; CC50 (PBMCs; Table 3, read-out: HIV-1 CC50 (PBMCs)): 44 µM; HBV TI (CC50/EC50) (HBV; Table 1): 190; HBV TI (CC50/EC50) (HBV; Table 3): 190; EC50 (HBV; Table 1, inhibit HBV by 50%): 0.34 µM; EC50 (HBV; Table 3): 0.34 µM; CC50 (HepG2; Table 1, uninfected cells): 64.5 µM; CC50 (HepG2; Table 3): 64.5 µM
CCCCCCCCCCCCCCCCSSCCOP(=O)(COC(C)Cn1cnc2c(N)ncnc21)OCCCC (mixture of isomers) [Compound 16]	150	27.9 µM	–	–	–	–	–	–	–	EC50 (HIV-1; [2]): 0.19 µM
CCCCCCCCCCCCSSCCOP(=O)(O)CO[C@H](C)Cn1cnc2c(N)ncnc21.N [Compound 11b]	–	–	0.003 µM	–	–	–	–	–	–	HIV-1 TI (CC50/EC50) (HIV-1; Table 1, PBMCs): 8,300; fold more active than CMX-157, HIV-1 (HIV-1; vs CMX-157 (20 nM)): seven-fold; CC50 (PBMCs; [7]): 25 µM; HBV TI (CC50/EC50) (HBV; Table 1): >30; EC50 (HBV; Table 1, inhibit HBV by 50%): 1.67 µM; CC50 (HepG2; Table 1, uninfected cells): > 50 µM
CCCCCCCCCCSSCCOP(=O)(CO[C@H](C)Cn1cnc2c(N)ncnc21)OCCSSCCCCCCCCCC [Compound 12a]	–	–	–	>287	0.349 µM	> 100 µM	>1	> 100 µM	> 100 µM	HIV-1 potency compared to parent nucleoside TFV (HIV-1): comparable to TFV
CCCCCCCCCCCCCCCCCCSSCCOP(=O)(CO[C@H](C)Cn1cnc2c(N)ncnc21)OCCSSCCCCCCCCCCCCCCCCCC [Compound 12e]	–	–	–	>76	0.331 µM	> 25 µM	>1	> 25 µM	> 25 µM	HIV-1 potency compared to parent nucleoside TFV (HIV-1): comparable to TFV
CCCCCCCCCCCCCCCCSSCCOP(=O)(CO[C@H](C)Cn1cnc2c(N)ncnc21)OCCSSCCCCCCCCCCCCCCCC [Compound 12d]	–	–	–	4.0	6.32 µM	> 25 µM	>1	> 25 µM	> 25 µM	–
CCCCCCCCCCCCCCCCCCOP(=O)(COC(C)Cn1cnc2c(N)ncnc21)OCCSSCCCCCCCCCCCCCCCC (mixture of isomers) [Compound 21]	>50	> 50 µM	0.911 µM	–	–	–	–	–	–	–
CCCCCCCCCCSSCCOP(=O)(O)CO[C@H](C)Cn1cnc2c(N)ncnc21.N [Compound 11a]	–	–	0.085 µM	–	–	–	–	–	–	fold less potent than TDF, HIV-1 (HIV-1; EC50 ratio vs TDF): 18 fold; HIV-1 TI (CC50/EC50) (HIV-1; Table 1, PBMCs): >590; CC50 (PBMCs; [7]): > 50 µM; HBV TI (CC50/EC50) (HBV; Table 1): >1; EC50 (HBV; Table 1, inhibit HBV by 50%): > 50 µM; CC50 (HepG2; Table 1, uninfected cells): > 50 µM
CCCCCCCCCCCCCCCCSSCCOP(=O)(COC(C)Cn1cnc2c(N)ncnc21)OCc1ccccc1 (mixture of isomers) [Compound 19]	2,300	41.1 µM	0.018 µM	–	–	–	–	–	–	–
CCCCCCCCCCCCCCCCCCSSCCOP(=O)(O)CO[C@H](C)Cn1cnc2c(N)ncnc21.N [Compound 11e]	–	–	–	–	–	–	–	–	–	HIV-1 TI (CC50/EC50) (HIV-1; Table 1, PBMCs): 11,000; EC50 (HIV-1; [5]): 0.0006 µM; CC50 (PBMCs; [7]): 6.36 µM; HBV TI (CC50/EC50) (HBV; Table 1): >50; EC50 (HBV; Table 1, inhibit HBV by 50%): 0.505 µM; CC50 (HepG2; Table 1, uninfected cells): > 50 µM
CCCCCCCCCCCCCCCCSSCCOP(=O)(COC(C)Cn1cnc2c(N)ncnc21)OC (mixture of isomers) [Compound 13]	1,500	38.2 µM	0.026 µM	–	–	–	–	–	–	–
CCCCCCCCCCCCCCCCSSCCOP(=O)(COC(C)Cn1cnc2c(N)ncnc21)OCC(C)(C)C (mixture of isomers) [Compound 18]	>700	> 100 µM	0.14 µM	–	–	–	–	–	–	–
CCCCCCCCCCCCCCSSCCOP(=O)(CO[C@H](C)Cn1cnc2c(N)ncnc21)OCCSSCCCCCCCCCCCCCC [Compound 12c]	–	–	–	>529	0.189 µM	> 100 µM	>1	> 100 µM	> 100 µM	HIV-1 potency compared to parent nucleoside TFV (HIV-1): two-fold increase in activity
C[C@H](Cn1cnc2c(N)ncnc21)OCP(=O)(O)OCCSSCCO [DTE-TFV, reference compound]	–	–	–	–	–	–	–	–	–	fold less active than TFV against HIV-1 (HIV-1): 5 fold; HIV-1 TI (CC50/EC50) (HIV-1; Table 1, PBMCs): >62.1; EC50 (HIV-1; [5]): 1.61 µM; CC50 (PBMCs; [7]): > 100 µM; HBV TI (CC50/EC50) (HBV; Table 1): >8.6; EC50 (HBV; Table 1, inhibit HBV by 50%): 11.6 µM; CC50 (HepG2; Table 1, uninfected cells): > 100 µM; t1/2 in human plasma [1]: 34 min
CCCCCCCCCCCCCCCCSSCCOP(=O)(COC(C)Cn1cnc2c(N)ncnc21)OC(C)CC (mixture of isomers) [Compound 17]	480	23.7 µM	–	–	–	–	–	–	–	EC50 (HIV-1; [2]): 0.049 µM; HIV-1 activity of s-Bu ester relative to n-Bu analogue 16 (HIV-1; vs compound 16): nearly four-fold
CCCCCCCCCCCCSSCCOP(=O)(CO[C@H](C)Cn1cnc2c(N)ncnc21)OCCSSCCCCCCCCCCCC [Compound 12b]	–	–	–	>85.0	1.18 µM	> 100 µM	>1	> 100 µM	> 100 µM	–
